# Results: the NIST ThermoML archive (doi:10.1016/j.jct.2011.02.003)
# Numbers after ± are expanded uncertainties.
# Columns and labels:
# [1] = Crystal; DTA
# [2] = Molar enthalpy of transition or fusion; conditions: Crystal; DSC
Compound,Normal melting temperature [1] [°C],Molar enthalpy of transition or fusion [2] [kcal/mol]
C[C@]12CCC(=O)C=C1CC[C@@H]1[C@@H]2CC[C@@]2(C)[C@H]1CC[C@]2(C)O [17-methyltestosterone],164.19 ± 0.71,5.98 ± 1.79
Nc1ccccc1O [2-hydroxybenzenamine],175.57 ± 0.93,6.39 ± 1.91
